Data taken from patent EP0222912A1, “AGENT FOR TREATING ARTERIOSCLEROSIS” (ZERIA SHINYAKU KOGYO KABUSHIKI KAISHA, priority 1984, dated 1985).

Columns and labels:
Assay type in all cases: in vivo
male SD rats [1] = system: male SD rats
Method: In order to examine the effect of decreasing lipids, male SD rats aged four weeks were classified into the following four groups: i.e. (1) an ordinary diet group (control); (2) a cholesterol diet group; (3) a cholesterol diet group to which cycloartenol ferulate was administered; and (4) a cholesterol diet group to which γ-oryzanol was administered.
Cycloartenol ferulate or γ-oryzanol was orally administered for 12 days repeatedly with the use of a metal probe. Each compound was administered in doses of 100 mg/kg, 500 mg/kg and 1000 mg/kg per animal a day. After each administration, blood of the animal was collected to determine free cholesterol (FC), triglyceride (TG) and phospholipids (PL) contained therein.

male SD rats [2] = assay: hyperlipemia induced by Triton WR-1339; conditions: 10 mg/kg intravenously with 300 mg/kg Triton WR-1339, blood 43 hours after injection
Method: In order to examine the mechanism of the lipid decreasing effect of cycloartenol ferulate the effect of the same on hyperlipemia induced by a surfactant (Triton WR-1339) was confirmed.
The test was conducted with male SD rats aged six weeks. 300 mg/kg of Triton WR-1339 was intravenously injected to each rat of the first group to thereby induce hyperlipemia (Triton control group), while 10 mg/kg of cycloartenol ferulate or 10 mg/kg of γ-oryzanol was intravenously injected simultaneously with 300 mg/kg of Triton WR-1339 to each rat of other groups, thus examining the effect of decreasing lipids. Blood of each animal was collected 43 hours after the intravenous injection.

dd mice = assay: acute toxicity, oral, mice; conditions: 5 g/kg orally, five dd mice
Description: (§1) In order to examine the acute toxicity of cycloartenol ferulate, it was orally administered to five dd mice and five SD rats.

SD rats = assay: acute toxicity, oral, rats; conditions: 5 g/kg orally, five SD rats
Description: as §1

COc1cc(/C=C/C(=O)O[C@H]2CC[C@]34C[C@]35CC[C@]3(C)[C@@H]([C@H](C)CCC=C(C)C)CC[C@@]3(C)[C@@H]5CC[C@H]4C2(C)C)ccc1O [cycloartenol ferulate]
free cholesterol (FC) (male SD rats [1]; blood, cholesterol diet, oral, 12 days, 100, 500 and 1000 mg/kg a day, vs cholesterol diet group (Fig. 5)): lower than that of the cholesterol diet group to a statistically significant extent
triglyceride (TG) (male SD rats [1]; blood, cholesterol diet, oral, 12 days, 100, 500 and 1000 mg/kg a day, vs cholesterol diet group (Fig. 6)): lower than that of the cholesterol diet group to a statistically significant extent
phospholipids (PL) (male SD rats [1]; blood, cholesterol diet, oral, 12 days, 100, 500 and 1000 mg/kg a day, vs cholesterol diet group (Fig. 7)): lower than that of the cholesterol diet group to a statistically significant extent
body weight gain (male SD rats [1]; cholesterol diet suppresses body weight gain, oral, 12 days (Fig. 12)): accelerated the growth of animals
arteriosclerosis index (male SD rats [1]; cholesterol diet, oral, 12 days (Fig. 9)): remarkably lowers this index
HDL-cholesterol (HDLC) (male SD rats [1]; cholesterol diet, oral, 12 days, vs cholesterol diet group (Fig. 8)): increase HDLC to a statistically significant extent
GOT (male SD rats [1]; rat, in vivo, po): no changes
GPT (male SD rats [1]; rat, in vivo, po): no changes
TC (male SD rats [2]; vs Triton control group and γ-oryzanol group (Fig. 13)): significant decreases
FC (male SD rats [2]; vs Triton control group and γ-oryzanol group (Fig. 14)): significant decreases
TG (male SD rats [2]; vs Triton control group and γ-oryzanol group (Fig. 15)): significant decreases
acute toxicity (dd mice): no animal died nor showed any toxic symptom
acute toxicity (SD rats): no animal died nor showed any toxic symptom
